In patent US20220306695A1, “COMPSTATIN ANALOGUES AND THEIR MEDICAL USES” (priority 2019, published 2022):
Where two headings read alike, the source gives them in different places. Starred links: 1 amine or outer side, 2 acyl side, 3 side chain; linkers in the order of their positions; H or OH if unused. Positions of bridges follow the written chain, without caps; N, C: chain ends. Non-standard residues stand in square brackets, D forms with d. Residues, ends and D or L forms follow the SMILES beside them. Groups on a side chain read outwards from the residue. *: point of attachment. Trp(1-Me) = Cn1cc(C[C@H](N)C(=O)O)c2ccccc21; Abu(4-yl) = O=C([C@H](CC[*:3])N[*:1])[*:2]; C18 diacid = O=C(O)CCCCCCCCCCCCCCCCC(=O)*; C16 diacid = O=C(O)CCCCCCCCCCCCCCC(=O)*; γGlu = O=C(O)[C@H](CCC(=O)[*:2])N[*:1]; AEEA = NCCOCCOCC(=O)O; Sar = CNCC(=O)O

How the values were obtained:
[1] = tested on: classical complement pathway; test: In vitro haemolysis assay (inhibition of classical complement pathway); assay type: cell-based, human; conditions: Table 3; human serum, sensitized sheep red blood cells; read-out: IC50[nM], in vitro analysis of inhibition of hemolysis
In short: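 Serially diluted compound (9 points) was preincubated 15 min at room temperature with diluted human serum, titrated per batch to give 70-90% maximal haemolysis, in Tris/casein buffer pH 7.4 with Mg2+/Ca2+. Antibody-sensitized sheep erythrocytes were then added for 30 min at 37° C, and the reaction was stopped with EDTA. Haemolysis was read at A405, with IC50 from 4PL fit.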

[2] = assay type: physicochemical; conditions: 50 mg/mL peptide; for Covalent oligomer content after 14 days 40° C. (%), F1 / Purity after 14 days 40° C. (%), F1: F1: 20 mM phosphate pH 5.5; for Covalent oligomer content after 14 days 40° C. (%), F1 / Covalent oligomer content after 14 days 40° C. (%), F2: denaturing SEC; for Purity after 14 days 40° C. (%), F1 / Purity after 14 days 40° C. (%), F2 / Purity after 14 days 40° C. (%), F3: normalized purity (HPLC)
Method: Chemical stability of compstatin analogues with cystathionine or disulfide bridge. Stability was assessed in three formulations at 50 mg/mL peptide, F1:20 mM phosphate pH 5.5, F2:20 mM phosphate pH 6.5 and F3:20 mM phosphate pH 7.5. The formulations were prepared by direct dissolution of peptide from lyophilized portions in the respective formulations. pH was adjusted to target with 1 M NaOH and 1 M HCl. Chemical stability was assessed under accelerated conditions (14 days, 40° C.) and evaluated as change in purity by reverse phase HPLC, and change in covalent oligomer content by denaturing SEC. The formulations were placed at 40° C. with analysis points at T=0, 7 and 14 days. On each time point a small volume was extracted and diluted to 2 mg/mL and tested by reverse phase HPLC and denaturing SEC. Purity was assessed by reverse phase HPLC using an Ultimate 3000 system for binary gradient application equipped with a Kinetix C18 column (cat. no. 00F-4462-Y0, 150 mm×3 mm, 2.6 μm) run at 0.5 ml/min with a gradient of buffer A (0.3% TFA, aq.) and buffer B (0.3% TFA, 90% MeCN, aq.) gradient from 40% B to 70% B over 20 min. Detection was done using a diode array detector set to 220 nm. Covalent oligomer formation was assessed by denaturing SEC (size exclusion chromatography) using an Ultimate 3000 system equipped with a TSKgel SuperSW 2000 column (cat. no. 818674, 300 mm×3 mm, 4 μm) run at 0.5 ml/min with isocratic flow of buffer A (0.1% TFA, 45% MeCN, aq.), 10 min. Detection was done using a diode array detector set to 215 nm. Compounds 126 and 156 were carefully weighed out and dissolved in formulations F1, F2 and F3 to a target concentration of 50 mg/mL. Once visually dissolved, concentration was confirmed by absorbance at 280 nm, and samples were placed in stability at 40° C. Samples for analysis were extracted on T=0, 7 and 14 days from a 40° C. climate chamber. The extracted volume was dissolved 1:25 (final concentration: 2 mg/mL) in 20 mM phosphate pH 5.5, 6.5 or 7.5 and measured by reverse phase HPLC and denaturing SEC by injection of 0.4 μL (column load […]). The resulting chromatograms were integrated to determine chemical purity by reverse phase HPLC and covalent oligomer content by denaturing SEC.

Human C3 = Human C3 (human, UniProt P01024 23-1663); test: cell-based or functional assay
Sequence of Human C3 (P01024 23-1663 limits assumed): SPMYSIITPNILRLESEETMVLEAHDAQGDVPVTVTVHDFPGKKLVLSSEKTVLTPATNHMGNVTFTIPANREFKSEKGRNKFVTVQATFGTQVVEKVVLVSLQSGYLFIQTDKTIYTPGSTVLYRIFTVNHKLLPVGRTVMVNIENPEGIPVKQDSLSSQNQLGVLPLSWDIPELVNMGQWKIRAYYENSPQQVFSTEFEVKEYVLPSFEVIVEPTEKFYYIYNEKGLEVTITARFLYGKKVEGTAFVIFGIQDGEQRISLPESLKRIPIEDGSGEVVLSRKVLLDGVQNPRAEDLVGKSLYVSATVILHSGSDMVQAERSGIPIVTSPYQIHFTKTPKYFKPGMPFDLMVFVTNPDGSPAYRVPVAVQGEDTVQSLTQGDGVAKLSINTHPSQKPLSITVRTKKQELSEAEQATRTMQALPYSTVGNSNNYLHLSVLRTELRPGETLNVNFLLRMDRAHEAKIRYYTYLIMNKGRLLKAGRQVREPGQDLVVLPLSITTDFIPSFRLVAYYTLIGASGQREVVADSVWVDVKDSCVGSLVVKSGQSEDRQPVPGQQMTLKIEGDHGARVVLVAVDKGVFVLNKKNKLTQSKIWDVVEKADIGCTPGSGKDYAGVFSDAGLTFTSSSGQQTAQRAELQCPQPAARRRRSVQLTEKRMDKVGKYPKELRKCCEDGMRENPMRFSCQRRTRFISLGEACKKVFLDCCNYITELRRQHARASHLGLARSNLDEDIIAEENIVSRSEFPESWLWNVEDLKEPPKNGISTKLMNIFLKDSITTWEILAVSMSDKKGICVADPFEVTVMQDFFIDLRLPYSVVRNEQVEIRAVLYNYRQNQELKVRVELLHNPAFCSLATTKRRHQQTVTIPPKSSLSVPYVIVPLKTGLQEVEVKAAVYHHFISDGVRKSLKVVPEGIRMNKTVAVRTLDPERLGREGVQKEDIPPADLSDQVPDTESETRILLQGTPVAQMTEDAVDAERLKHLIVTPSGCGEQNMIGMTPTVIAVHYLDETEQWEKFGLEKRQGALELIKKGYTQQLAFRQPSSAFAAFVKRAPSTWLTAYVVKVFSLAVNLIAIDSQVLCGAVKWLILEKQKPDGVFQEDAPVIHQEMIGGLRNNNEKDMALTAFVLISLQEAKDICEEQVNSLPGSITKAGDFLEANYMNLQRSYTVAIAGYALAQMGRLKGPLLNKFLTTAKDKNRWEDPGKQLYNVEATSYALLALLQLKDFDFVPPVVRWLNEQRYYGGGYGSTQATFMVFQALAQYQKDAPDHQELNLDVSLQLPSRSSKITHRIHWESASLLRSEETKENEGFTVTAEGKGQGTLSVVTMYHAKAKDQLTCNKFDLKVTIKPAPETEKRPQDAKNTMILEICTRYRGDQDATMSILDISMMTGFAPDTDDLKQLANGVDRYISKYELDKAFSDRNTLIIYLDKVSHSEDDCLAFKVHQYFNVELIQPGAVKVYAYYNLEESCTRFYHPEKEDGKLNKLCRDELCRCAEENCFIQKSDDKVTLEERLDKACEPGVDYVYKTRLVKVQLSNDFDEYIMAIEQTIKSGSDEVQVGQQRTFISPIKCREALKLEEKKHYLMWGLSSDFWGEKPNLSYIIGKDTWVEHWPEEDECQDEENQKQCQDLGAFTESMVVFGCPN

| Covalent oligomer content after 14 days 40° C. (%), F1 [2] | Purity after 14 days 40° C. (%), F1 [2] | Covalent oligomer content after 14 days 40° C. (%), F2 ([2]; F2: 20 mM phosphate pH 6.5) | Purity after 14 days 40° C. (%), F2 ([2]; F2: 20 mM phosphate pH 6.5) | Covalent oligomer content after 14 days 40° C. (%), F2 ([2]; F3: 20 mM phosphate pH 7.5) | Purity after 14 days 40° C. (%), F3 ([2]; F3: 20 mM phosphate pH 7.5) | Molecule | IC50 [1] | IC50[nM], inhibition of hemolysis (Human C3) |
| --- | --- | --- | --- | --- | --- | --- | --- | --- |
| 0.7% | 97% | 0.5% | 99% | 0.3% | 99% | CC[C@H](C)[C@@H]1NC(=O)[C@@H](NC(=O)[C@H](Cc2ccccc2)NC(=O)[C@H](CCC(=O)O)NC(=O)[C@H](CO)NC(C)=O)CSCC[C@@H](C(=O)N(C)CC(=O)N[C@@H](CCC(=O)O)C(=O)NCC(=O)N[C@@H](CCC(=O)O)C(=O)NCCOCCOCC(=O)NCCOCCOCC(=O)N[C@@H](CCCCNC(=O)CC[C@H](NC(=O)CNC(=O)CC[C@H](NC(=O)CCCCCCCCCCCCCCCCC(=O)O)C(=O)O)C(=O)O)C(N)=O)NC(=O)[C@H](CCCNC(=N)N)NC(=O)[C@H](Cc2c[nH]cn2)NC(=O)[C@H](CCC(=O)O)NC(=O)CNC(=O)[C@H](Cc2c[nH]c3ccccc23)NC(=O)[C@H](CCC(=O)O)NC(=O)[C@H](CCC(N)=O)NC(=O)[C@H](Cc2cn(C)c3ccccc23)NC1=O [Compound 153] (Ac-SEFCI[Trp(1-Me)]QEWGEHR[Abu(4-yl)][Sar]EGE[AEEA][AEEA]K([γGlu-Gly-γGlu-C18 diacid])-NH2; thioether 4-14) | < 100 nM |  |
| 66% | 45% | 54% | 47% | 41% | 57% | CC[C@H](C)[C@@H]1NC(=O)[C@@H](NC(=O)[C@H](Cc2ccccc2)NC(=O)[C@H](CCC(=O)O)NC(=O)[C@H](CO)NC(C)=O)CSSC[C@@H](C(=O)N[C@H](C(=O)N[C@@H](CCC(=O)O)C(=O)NCC(=O)N[C@@H](CCC(=O)O)C(=O)NCCOCCOCC(=O)NCCOCCOCC(=O)N[C@@H](CCCCNC(=O)CC[C@H](NC(=O)CNC(=O)CC[C@H](NC(=O)CCCCCCCCCCCCCCCCC(=O)O)C(=O)O)C(=O)O)C(N)=O)[C@@H](C)O)NC(=O)[C@H](CCCNC(=N)N)NC(=O)[C@H](Cc2c[nH]cn2)NC(=O)[C@H](CCC(=O)O)NC(=O)CNC(=O)[C@H](Cc2c[nH]c3ccccc23)NC(=O)[C@H](CC(=O)O)NC(=O)[C@H](CCC(N)=O)NC(=O)[C@H](Cc2cn(C)c3ccccc23)NC1=O [Compound 126] (Ac-SEFCI[Trp(1-Me)]QDWGEHRCTEGE[AEEA][AEEA]K([γGlu-Gly-γGlu-C18 diacid])-NH2; disulfide 4-14) | < 100 nM |  |
| 1.1% | 92% | 0.5% | 96% | 1.1% | 95% | CC[C@H](C)[C@@H]1NC(=O)[C@@H](NC(=O)[C@H](Cc2ccccc2)NC(=O)[C@H](CCC(=O)O)NC(=O)[C@H](CO)NC(C)=O)CSCC[C@@H](C(=O)N[C@H](C(=O)N[C@@H](CCC(=O)O)C(=O)NCC(=O)N[C@@H](CCC(=O)O)C(=O)NCCOCCOCC(=O)NCCOCCOCC(=O)N[C@@H](CCCCNC(=O)CC[C@H](NC(=O)CNC(=O)CC[C@H](NC(=O)CCCCCCCCCCCCCCCCC(=O)O)C(=O)O)C(=O)O)C(N)=O)[C@@H](C)O)NC(=O)[C@H](CCCNC(=N)N)NC(=O)[C@H](Cc2c[nH]cn2)NC(=O)[C@H](CCC(=O)O)NC(=O)CNC(=O)[C@H](Cc2c[nH]c3ccccc23)NC(=O)[C@H](CC(=O)O)NC(=O)[C@H](CCC(N)=O)NC(=O)[C@H](Cc2cn(C)c3ccccc23)NC1=O [Compound 156, Ac-SEFA(1)I[1-Me-Trp]QDWGEHRhC(1)TEGE[Peg3][Peg3]-K([17-carboxy-heptadecanoyl][γGlu]G[γGlu])-NH2] (Ac-SEFCI[Trp(1-Me)]QDWGEHR[Abu(4-yl)]TEGE[AEEA][AEEA]K([γGlu-Gly-γGlu-C18 diacid])-NH2; thioether 4-14) | < 100 nM |  |
|  |  |  |  |  |  | Ac-EGSAYCI[Trp(1-Me)]QDWGEHK([AEEA-AEEA-γGlu-C16 diacid])C[Sar]E-NH2 (disulfide 6-16; SMILES CC[C@H](C)[C@@H]1NC(=O)[C@@H](NC(=O)[C@H](Cc2ccc(O)cc2)NC(=O)[C@H](C)NC(=O)[C@H](CO)NC(=O)CNC(=O)[C@H](CCC(=O)O)NC(C)=O)CSSC[C@@H](C(=O)N(C)CC(=O)N[C@@H](CCC(=O)O)C(N)=O)NC(=O)[C@H](CCCCNC(=O)COCCOCCNC(=O)COCCOCCNC(=O)CC[C@H](NC(=O)CCCCCCCCCCCCCCC(=O)O)C(=O)O)NC(=O)[C@H](Cc2c[nH]cn2)NC(=O)[C@H](CCC(=O)O)NC(=O)CNC(=O)[C@H](Cc2c[nH]c3ccccc23)NC(=O)[C@H](CC(=O)O)NC(=O)[C@H](CCC(N)=O)NC(=O)[C@H](Cc2cn(C)c3ccccc23)NC1=O) [Compound 103] |  | < 100 nM |
|  |  |  |  |  |  | Ac-K([AEEA-AEEA-γGlu-C16 diacid])GSAICIWQDWGEHRCTEGE-NH2 (disulfide 6-16; SMILES CC[C@H](C)[C@H](NC(=O)[C@H](C)NC(=O)[C@H](CO)NC(=O)CNC(=O)[C@H](CCCCNC(=O)COCCOCCNC(=O)COCCOCCNC(=O)CC[C@H](NC(=O)CCCCCCCCCCCCCCC(=O)O)C(=O)O)NC(C)=O)C(=O)N[C@H]1CSSC[C@@H](C(=O)N[C@H](C(=O)N[C@@H](CCC(=O)O)C(=O)NCC(=O)N[C@@H](CCC(=O)O)C(N)=O)[C@@H](C)O)NC(=O)[C@H](CCCNC(=N)N)NC(=O)[C@H](Cc2c[nH]cn2)NC(=O)[C@H](CCC(=O)O)NC(=O)CNC(=O)[C@H](Cc2c[nH]c3ccccc23)NC(=O)[C@H](CC(=O)O)NC(=O)[C@H](CCC(N)=O)NC(=O)[C@H](Cc2c[nH]c3ccccc23)NC(=O)[C@H]([C@@H](C)CC)NC1=O) [Compound 100] |  | < 500 nM |
|  |  |  |  |  |  | Ac-SAYCI[Trp(1-Me)]QDWGEHRC[Sar]EK([γGlu-Gly-Lys-γGlu-C18 diacid])-NH2 (disulfide 4-14) [Compound 105] |  | < 100 nM |
|  |  |  |  |  |  | {C18 diacid}-EGSEYCI[Trp(1-Me)]QDWGEHRC[Sar]E-NH2 (disulfide 6-16; SMILES CC[C@H](C)[C@@H]1NC(=O)[C@@H](NC(=O)[C@H](Cc2ccc(O)cc2)NC(=O)[C@H](CCC(=O)O)NC(=O)[C@H](CO)NC(=O)CNC(=O)[C@H](CCC(=O)O)NC(=O)CCCCCCCCCCCCCCCCC(=O)O)CSSC[C@@H](C(=O)N(C)CC(=O)N[C@@H](CCC(=O)O)C(N)=O)NC(=O)[C@H](CCCNC(=N)N)NC(=O)[C@H](Cc2c[nH]cn2)NC(=O)[C@H](CCC(=O)O)NC(=O)CNC(=O)[C@H](Cc2c[nH]c3ccccc23)NC(=O)[C@H](CC(=O)O)NC(=O)[C@H](CCC(N)=O)NC(=O)[C@H](Cc2cn(C)c3ccccc23)NC1=O) [Compound 108] |  | < 500 nM |
|  |  |  |  |  |  | Ac-EGSAYCI[Trp(1-Me)]QDWGEHRC[Sar]EGEK([γGlu-Gly-γGlu-C18 diacid])-NH2 (disulfide 6-16; SMILES CC[C@H](C)[C@@H]1NC(=O)[C@@H](NC(=O)[C@H](Cc2ccc(O)cc2)NC(=O)[C@H](C)NC(=O)[C@H](CO)NC(=O)CNC(=O)[C@H](CCC(=O)O)NC(C)=O)CSSC[C@@H](C(=O)N(C)CC(=O)N[C@@H](CCC(=O)O)C(=O)NCC(=O)N[C@@H](CCC(=O)O)C(=O)N[C@@H](CCCCNC(=O)CC[C@H](NC(=O)CNC(=O)CC[C@H](NC(=O)CCCCCCCCCCCCCCCCC(=O)O)C(=O)O)C(=O)O)C(N)=O)NC(=O)[C@H](CCCNC(=N)N)NC(=O)[C@H](Cc2c[nH]cn2)NC(=O)[C@H](CCC(=O)O)NC(=O)CNC(=O)[C@H](Cc2c[nH]c3ccccc23)NC(=O)[C@H](CC(=O)O)NC(=O)[C@H](CCC(N)=O)NC(=O)[C@H](Cc2cn(C)c3ccccc23)NC1=O) [Compound 109] |  | < 250 nM |
